According to US7423054B2, “Therapeutic pyrazolo[3,4-b]pyridines and indazoles” (Warner Lambert Company LLC, priority 2004, dated 2008):
Where a name gives a salt, the structure may show the parent alone.

Experiments:
[1] = target: T1, human norepinephrine transporter (hNET) (Homo sapiens, UniProt P23975); experiment: hNET receptor binding ([125I]-RTI-55 displacement, membranes of transfected HEK-293 cells); conditions: HEK-293 membranes, Ki from IC50 by Cheng-Prusoff, read-out: NET Ki
T1 construct: expressed in transfected cells; host or cells: HEK-293 cells (membrane preparation)
Source text: (§1) The ability of the compounds of the present invention to inhibit a norepinephrine transporter and/or a serotonin transporter can be determined using conventional radioligand receptor transport assays. The receptors can be heterologously expressed in cell lines and experiments conducted in membrane preparations from the cell lines that express a norepinephrine transporter and/or a serotonin transporter.
(§2) Cell pastes of HEK-293 cells transfected with a human norepinephrine transporter cDNA were prepared. The cell pastes were resuspended in 400 to 700 ml of Krebs-HEPES assay buffer (25 mM HEPES, 122 mM NaCl, 3 mM KCl, 1.2 mM MgSO4, 1.3 mM CaCl2, and 11 mM glucose, pH 7.4) with a Polytron homogenizer at setting 7 for 30 seconds. Aliquots of membranes (5 mg/ml protein) were stored in liquid nitrogen until used.
The binding assay was set up in Beckman deep-well polypropylene plates with a total volume of 250 μl containing: test compound (10^−5M to 10^−12M), cell membranes, and 50 pM [^125I]-RTI-55 (Perkin Elmer, NEX-272; specific activity 2200 Ci/mmol). The reaction was incubated by gentle agitation for 90 minutes at room temperature and was terminated by filtration through Whatman GF/C filter plates using a Brandel 96-well plate harvester. Scintillation fluid (100 μl) was added to each well, and bound [^125I]-RTI-55 was determined using a Wallac Trilux Beta Plate Counter. Test compounds were run in duplicate, and specific binding was defined as the difference between binding in the presence and absence of 10 μM desipramine.
Excel and GraphPad Prism software were used for data calculation and analysis. IC50 values were converted to Ki values using the Cheng-Prusoff equation. The Ki values (nM) for the hNET are reported below in Table 11.

[2] = target: T2, human serotonin transporter (hSERT) (Homo sapiens, UniProt P31645); experiment: hSERT receptor binding ([125I]-RTI-55 displacement, membranes of transfected HEK-293 cells); conditions: HEK-293 membranes, Ki from IC50 by Cheng-Prusoff, read-out: SERT Ki
T2 construct: expressed in transfected cells; host or cells: HEK-293 cells (membrane preparation)
Description: as §1
as §2, with “serotonin” for “norepinephrine”, “Setting” for “setting”, “(˜2.5” for “(5”
Assays were set up in FlashPlates pre-coated with 0.1% PEI in a total volume of 250 μl containing: test compound (10^−5M to 10^−12M), cell membranes, and 50 pM [^125I]-RTI-55 (Perkin Elmer, NEX-272; specific activity 2200 Ci/mmol). The reaction was incubated and gently agitated for 90 minutes at room temperature, and terminated by removal of assay volume. Plates were covered, and bound [^125I]-RTI-55 was determined using a Wallac Trilux Beta Plate Counter. Test compounds were run in duplicate, and specific binding was defined as the difference between binding in the presence and absence of 10 μM citalopram.
Excel and GraphPad Prism software were used for data calculation and analysis. IC50 values were converted to Ki values using the Cheng-Prusoff equation. The Ki values (nM) for the hSERT are reported below in Table 11: […]

T1 sequence (P23975 whole entry): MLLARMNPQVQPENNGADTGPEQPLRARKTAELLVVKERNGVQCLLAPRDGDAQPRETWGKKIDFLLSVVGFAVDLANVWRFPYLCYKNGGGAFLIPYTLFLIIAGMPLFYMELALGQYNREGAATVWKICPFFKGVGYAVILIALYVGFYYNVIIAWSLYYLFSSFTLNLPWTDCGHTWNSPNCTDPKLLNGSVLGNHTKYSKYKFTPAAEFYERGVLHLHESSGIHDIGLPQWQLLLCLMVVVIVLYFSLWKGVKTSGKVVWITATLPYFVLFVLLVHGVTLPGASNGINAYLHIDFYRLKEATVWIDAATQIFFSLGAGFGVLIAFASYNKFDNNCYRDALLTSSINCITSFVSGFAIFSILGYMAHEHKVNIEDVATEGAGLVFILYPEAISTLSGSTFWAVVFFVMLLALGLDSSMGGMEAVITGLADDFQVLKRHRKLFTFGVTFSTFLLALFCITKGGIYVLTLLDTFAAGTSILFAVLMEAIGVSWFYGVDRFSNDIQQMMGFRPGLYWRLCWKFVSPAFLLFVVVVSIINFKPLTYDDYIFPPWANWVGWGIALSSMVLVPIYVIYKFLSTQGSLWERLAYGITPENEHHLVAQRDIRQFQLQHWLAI
T2 sequence (P31645 whole entry): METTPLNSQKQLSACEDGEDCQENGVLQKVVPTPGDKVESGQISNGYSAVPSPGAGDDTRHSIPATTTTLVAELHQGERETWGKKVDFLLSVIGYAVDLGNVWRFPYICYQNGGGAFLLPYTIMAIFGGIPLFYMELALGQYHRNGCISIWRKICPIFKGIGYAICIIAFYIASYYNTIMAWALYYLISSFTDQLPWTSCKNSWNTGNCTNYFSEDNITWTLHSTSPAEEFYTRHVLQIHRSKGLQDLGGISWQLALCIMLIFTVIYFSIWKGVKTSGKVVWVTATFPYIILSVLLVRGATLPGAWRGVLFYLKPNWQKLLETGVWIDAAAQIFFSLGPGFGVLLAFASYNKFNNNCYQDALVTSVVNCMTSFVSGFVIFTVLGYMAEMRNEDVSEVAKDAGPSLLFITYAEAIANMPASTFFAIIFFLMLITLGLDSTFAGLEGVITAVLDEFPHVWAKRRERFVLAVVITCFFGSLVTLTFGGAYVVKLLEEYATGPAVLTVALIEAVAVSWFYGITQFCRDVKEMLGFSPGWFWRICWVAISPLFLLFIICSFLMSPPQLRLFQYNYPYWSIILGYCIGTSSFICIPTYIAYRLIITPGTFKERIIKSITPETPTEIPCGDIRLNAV

| Ki [1] | Ki [2] | Structure (SMILES) |
| --- | --- | --- |
| 329 nM | 1460 nM | c1ccc(-n2nc(OC3CCCNC3)c3ccccc32)cc1 (racemic) [Example 15, (±)-1-Phenyl-3-(piperidin-3-yloxy)-1H-indazole hydrochloride] |
| 21.5 nM | 224 nM | c1ccc(-n2nc(OCC3CCCNC3)c3ccccc32)cc1 (racemic) [Example 16, (±)-1-Phenyl-3-(piperidin-3-ylmethoxy)-1H-indazole hydrochloride] |
| 151 nM | 28 nM | c1ccc(-n2nc(OCC3CCNCC3)c3ccccc32)cc1 (racemic) [Example 17, (±)-1-Phenyl-3-(piperidin-4-ylmethoxy)-1H-indazole hydrochloride] |
| 16.9 nM | 120 nM | Fc1cccc(-n2nc(OCC3CCCNC3)c3ccccc32)c1 (racemic) [Example 66, (±)-1-(3-Fluoro-phenyl)-3-(piperidin-3-ylmethoxy)-1H-indazole hydrochloride] |
| 219 nM | 359 nM | Clc1ccc(-n2nc(OCC3CCCNC3)c3ccccc32)cc1 (racemic) [Example 68, (±)-1-(4-Chloro-phenyl)-3-(piperidin-3-ylmethoxy)-1H-indazole hydrochloride] |
| 98 nM | 339 nM | Clc1ccc2c(c1)c(OCC1CCCNC1)nn2-c1ccccc1 (racemic) [Example 69, (±)-5-Chloro-1-phenyl-3-(piperidin-3-ylmethoxy)-1H-indazol hydrochloride] |
| 3 nM | 270 nM | Fc1ccccc1-n1nc(OCC2CCCNC2)c2ccccc21 (stereo not drawn) [Example 4, 1-(2-Fluorophenyl)-3-(piperidin-3-ylmethoxy)-1H-indazole hydrochloride] |
| 1.65 nM | 192 nM | Fc1ccccc1-n1nc(OC[C@H]2CCCNC2)c2ccccc21 [Example 6, (S)-(−)-1-(2-Fluorophenyl)-3-(piperidin-3-ylmethoxy)-1H-indazole hydrochloride] |
| 14 nM | 279 nM | Fc1ccccc1-n1nc(OC[C@@H]2CCNC2)c2ccccc21 [Example 11, (R)-1-(2-Fluoro-phenyl)-3-(pyrrolidin-3-ylmethoxy)-1H-indazole hydrochloride] |
| 95.5 nM | 121 nM | c1ccc(-n2nc(OC[C@@H]3CCCNC3)c3ccccc32)cc1 [Example 18, (R)-(+)-1-Phenyl-3-(piperidin-3-ylmethoxy)-1H-indazole hydrochloride] |
| 5.43 nM | 486 nM | c1ccc(-n2nc(OC[C@H]3CCCNC3)c3ccccc32)cc1 [Example 19, (S)-(−)-1-Phenyl-3-(piperidin-3-ylmethoxy)-1H-indazole hydrochloride] |
| 12.5 nM | 1120 nM | c1ccc(-n2nc(OC[C@@H]3CNCCO3)c3ccccc32)cc1 [Example 21, (S)-(+)-3-(Morpholin-2-ylmethoxy)-1-phenyl-1H-indazole hydrochloride] |
| 25.7 nM | 68.2 nM | c1ccc(-n2nc(OC[C@H]3CCNC3)c3ccccc32)cc1 [Example 22, (S)-1-Phenyl-3-(pyrrolidin-3-ylmethoxy)-1H-indazole hydrochloride] |
| 24 nM | 82.6 nM | Fc1ccc(-n2nc(OC[C@H]3CCNC3)c3ccccc32)cc1F [Example 35, (S)-1-(3,4-Difluoro-phenyl)-3-(pyrrolidin-3-ylmethoxy)-1H-indazole hydrochloride] |

More lines, now with the values behind:

| Structure (SMILES) | Ki [1] | Ki [2] |
| --- | --- | --- |
| Fc1ccc(-n2nc(OCC3CCCNC3)c3ccccc32)cc1 (racemic) [Example 67, (±)-1-(4-Fluoro-phenyl)-3-(piperidin-3-ylmethoxy)-1H-indazole hydrochloride] | 19.7 nM | 191 nM |
| Fc1ccc2c(OCC3CCCNC3)nn(-c3ccccc3F)c2c1 (racemic) [Example 70, (±)-6-Fluoro-1-(2-fluoro-phenyl)-3-(piperidin-3-ylmethoxy)-1H-indazole hydrochloride] | 33.6 nM | 200 nM |
| Fc1ccc2c(c1)c(OCC1CCCNC1)nn2-c1ccc(F)c(F)c1 (racemic) [Example 96, (±)-1-(3,4-Difluoro-phenyl)-5-fluoro-3-(piperidin-3-ylmethoxy)-1H-indazole hydrochloride] | 49.5 nM | 172 nM |
| Fc1ccccc1-n1nc(OC[C@@H]2CNCCO2)c2ccccc21 [Example 2, (S)-(+)-1-(2-Fluorophenyl)-3-(morpholin-2-ylmethoxy)-1H-indazole maleate] | 9.28 nM | 1620 nM |
| Fc1ccc(-n2nc(OC[C@@H]3CNCCO3)c3ccccc32)c(F)c1 [Example 3, (S)-(+)-1-(2,4-Difluorophenyl)-3-(morpholin-2-ylmethoxy)-1H-indazole maleate] | 3.4 nM | 832 nM |
| Fc1ccccc1-n1nc(OC[C@H]2CNCCO2)c2ccccc21 [Example 5, (R)-(−)-1-(2-Fluorophenyl)-3-(morpholin-2-ylmethoxy)-1H-indazole hydrochloride] | 84 nM | 1610 nM |
| Fc1ccc(-n2nc(OC3CCNCC3)c3ccccc32)c(F)c1 [Example 10, 1-(2,4-Difluoro-phenyl)-3-(piperidin-4-yloxy)-1H-indazole hydrochloride] | 14.3 nM | 36.1 nM |
| Fc1ccccc1-n1nc(O[C@H]2CCCN2)c2ccccc21 [Example 12, (S)-(−)-1-(2-Fluorophenyl)-3-(pyrrolidin-2-yloxy)-1H-indazole hydrochloride] | 12.5 nM | 1010 nM |
| Fc1ccccc1-n1nc(O[C@@H]2CCCN2)c2ccccc21 [Example 13, (R)-(+)-1-(2-Fluorophenyl)-3-(pyrrolidin-2-yloxy)-1H-indazole maleate] | 131 nM | 5290 nM |
| Fc1ccc(-n2nc(OC[C@@H]3CNCCO3)c3ccccc32)cc1F [Example 23, (S)-1-(3,4-Difluoro-phenyl)-3-(morpholin-2-ylmethoxy)-1H-indazole hydrochloride] | 11.5 nM | 1530 nM |
| Fc1cccc(F)c1-n1nc(OC[C@H]2CCCNC2)c2ccccc21 [Example 25, (S)-1-(2,6-Difluoro-phenyl)-3-(piperidin-3-ylmethoxy)-1H-indazole maleate] | 3.2 nM | 670 nM |
| Fc1ccc(F)c(-n2nc(OC[C@@H]3CNCCO3)c3cc(F)ccc32)c1 [Example 26, (S)-1-(2,5-Difluoro-phenyl)-5-fluoro-3-(morpholin-2-ylmethoxy)-1H-indazole maleate] | 6.9 nM | 346 nM |
| Fc1ccc(F)c(-n2nc(OC[C@@H]3CNCCO3)c3ccccc32)c1 [Example 28, (S)-(+)-1-(2,5-Difluorophenyl)-3-(morpholin-2-ylmethoxy)-1H-indazole maleate] | 5.1 nM | 640 nM |
| Clc1cc(Cl)cc(-n2nc(OC3CCNCC3)c3ccccc32)c1 [Example 29, 1-(3,5-Dichloro-phenyl)-3-(piperidin-4-yloxy)-1H-indazole hydrochloride] | 4050 nM | 342 nM |
| Fc1ccc(-n2nc(OC[C@H]3CCCNC3)c3ccccc32)cc1F [Example 33, (S)-1-(3,4-Difluoro-phenyl)-3-(piperidin-3-ylmethoxy)-1H-indazole hydrochloride] | 19.2 nM | 198 nM |
| Fc1ccc(-n2nc(OC3CCNCC3)c3ccccc32)cc1F [Example 34, 1-(3,4-Difluoro-phenyl)-3-(piperidin-4-yloxy)-1H-indazole hydrochloride] | 30 nM | 81 nM |
